In ChEMBL document CHEMBL4680246, “Design, synthesis and biological evaluation of novel O-carbamoyl ferulamide derivatives as multi-target-directed ligands for the treatment of Alzheimer's disease” (Eur J Med Chem, 2020):
Calls of active or inactive are those of the source. The rule behind the calls is not given here.

Tests used:
Danio rerio [1] = species: Danio rerio; test: Protection against amyloid beta (1 to 42)-induced zebrafish model of vascular injury assessed as reduction in vascular injury at 1 ug/ml relative to control; assay type: functional; conditions: dose 1 µg/ml
[2] = Acute toxicity in Kunming mouse assessed as damage in lung at 50 to 1000 mg/kg measured after 7 days; assay type: organism-based; conditions: in vivo, 168 h, dose 50-1000 mg/kg, time 7 day
[3] = Acute toxicity in Kunming mouse assessed as hypokinesia at 250 to 1000 mg/kg; assay type: organism-based; conditions: in vivo, dose 250-1000 mg/kg
[4] = biological target: Amyloid-beta precursor protein (Homo sapiens) (UniProt P05067); test: Disaggregation of self-induced amyloid beta (1 to 42) (unknown origin) preformed fibrils at 25 uM measured after 24 hrs by thioflavin-T fluorescence assay relative to control
Sequence of Amyloid-beta precursor protein (Homo sapiens) (P05067 whole entry): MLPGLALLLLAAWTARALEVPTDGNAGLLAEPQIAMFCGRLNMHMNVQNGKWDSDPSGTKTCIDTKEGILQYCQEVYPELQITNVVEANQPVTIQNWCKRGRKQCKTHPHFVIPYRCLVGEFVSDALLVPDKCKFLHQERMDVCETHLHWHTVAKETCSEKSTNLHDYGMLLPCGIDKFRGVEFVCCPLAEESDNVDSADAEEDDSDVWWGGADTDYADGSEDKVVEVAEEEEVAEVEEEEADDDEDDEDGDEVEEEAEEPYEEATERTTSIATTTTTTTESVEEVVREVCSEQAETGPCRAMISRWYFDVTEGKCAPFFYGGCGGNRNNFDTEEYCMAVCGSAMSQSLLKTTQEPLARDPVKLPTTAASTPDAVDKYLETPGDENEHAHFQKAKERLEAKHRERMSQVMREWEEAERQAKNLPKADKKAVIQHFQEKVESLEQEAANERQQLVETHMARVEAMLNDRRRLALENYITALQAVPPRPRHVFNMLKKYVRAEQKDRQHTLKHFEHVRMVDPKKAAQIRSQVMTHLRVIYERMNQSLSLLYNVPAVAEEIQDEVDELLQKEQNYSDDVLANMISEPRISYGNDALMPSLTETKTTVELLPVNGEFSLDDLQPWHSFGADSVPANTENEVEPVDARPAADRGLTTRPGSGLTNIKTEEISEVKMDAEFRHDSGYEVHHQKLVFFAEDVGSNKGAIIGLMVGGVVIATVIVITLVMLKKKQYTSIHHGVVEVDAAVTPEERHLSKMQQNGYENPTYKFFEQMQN

[5] = Toxicity in AlCl3-induced Zebrafish model of Alzheimer's disease assessed as mortality at 50 ug/ml relative to control; set-up: species or system Danio rerio; conditions: in vivo, at 50 µg/mL
Cholinesterase [6] = biological target: Cholinesterase (Equus caballus, UniProt P81908); test: Inhibition of equine serum BuChE using BTC as substrate after 15 mins by Ellman's method
Sequence of Cholinesterase (Equus caballus, UniProt P81908) (P81908 whole entry): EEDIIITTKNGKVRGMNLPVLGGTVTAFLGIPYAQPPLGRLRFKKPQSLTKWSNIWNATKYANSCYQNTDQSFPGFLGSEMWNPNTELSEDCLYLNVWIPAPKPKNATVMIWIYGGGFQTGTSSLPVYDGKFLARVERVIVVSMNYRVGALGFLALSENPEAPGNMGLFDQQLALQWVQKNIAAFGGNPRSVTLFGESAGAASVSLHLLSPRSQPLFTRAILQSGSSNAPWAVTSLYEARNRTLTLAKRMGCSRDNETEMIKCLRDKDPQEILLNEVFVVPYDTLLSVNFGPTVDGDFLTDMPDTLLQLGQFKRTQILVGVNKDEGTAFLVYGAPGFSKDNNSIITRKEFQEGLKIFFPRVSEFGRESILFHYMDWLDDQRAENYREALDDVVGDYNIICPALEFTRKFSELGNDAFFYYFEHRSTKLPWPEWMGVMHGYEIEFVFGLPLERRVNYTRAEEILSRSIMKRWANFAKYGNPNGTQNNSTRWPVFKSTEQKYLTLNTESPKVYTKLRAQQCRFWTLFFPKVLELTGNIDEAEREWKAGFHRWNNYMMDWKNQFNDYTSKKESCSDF

Danio rerio [7] = species: Danio rerio; test: Antialzheimer activity in AlCl3-induced Zebrafish model of Alzheimer's disease assessed as increase in motility distance at 0.33 ug/ml relative to control; assay type: functional; conditions: dose 0.33 µg/ml
[8] = biological target: T1, Amine oxidase [flavin-containing] A (Homo sapiens, UniProt P21397); test: Inhibition of recombinant human MAO-A
T1 sequence (P21397 whole entry): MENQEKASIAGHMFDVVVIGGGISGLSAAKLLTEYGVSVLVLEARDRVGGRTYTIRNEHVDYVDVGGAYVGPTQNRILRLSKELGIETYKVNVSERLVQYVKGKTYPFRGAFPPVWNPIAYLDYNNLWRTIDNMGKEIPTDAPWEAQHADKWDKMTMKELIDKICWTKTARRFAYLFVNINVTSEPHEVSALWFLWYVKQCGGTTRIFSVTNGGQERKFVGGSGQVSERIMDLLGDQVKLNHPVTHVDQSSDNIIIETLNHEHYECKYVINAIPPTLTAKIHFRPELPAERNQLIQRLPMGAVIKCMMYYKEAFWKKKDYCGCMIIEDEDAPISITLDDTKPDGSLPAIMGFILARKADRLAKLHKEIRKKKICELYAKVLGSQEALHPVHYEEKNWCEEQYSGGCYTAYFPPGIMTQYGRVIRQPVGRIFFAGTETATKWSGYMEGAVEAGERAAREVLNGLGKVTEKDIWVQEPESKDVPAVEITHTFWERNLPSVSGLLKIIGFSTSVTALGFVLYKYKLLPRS

Danio rerio [9] = species: Danio rerio; test: Antialzheimer activity in AlCl3-induced Zebrafish model of Alzheimer's disease assessed as motility distance at 0.33 ug/ml (reference value: 5346 mm); assay type: functional; conditions: dose 0.33 µg/ml
[10] = Toxicity in Zebrafish assessed as change in body shape at 6.25 ug/ml relative to control; set-up: species or system Danio rerio; conditions: in vivo, at 6.25 µg/mL
HT-22 = test: Effect on tau protein level in mouse HT22 cells transfected with pRK5-GFP-Tau P301L plasmid assessed as reduction in fluorescence intensity by fluorescence microscopy; assay type: functional, cell-based
Cholinesterase [11] = biological target: T2, Cholinesterase (Homo sapiens, UniProt P06276); test: Inhibition of human serum BuChE assessed as residual activity at IC50 using acetylcholine iodide as substrate measured by Ellman's method relative to control
T2 sequence (P06276 whole entry): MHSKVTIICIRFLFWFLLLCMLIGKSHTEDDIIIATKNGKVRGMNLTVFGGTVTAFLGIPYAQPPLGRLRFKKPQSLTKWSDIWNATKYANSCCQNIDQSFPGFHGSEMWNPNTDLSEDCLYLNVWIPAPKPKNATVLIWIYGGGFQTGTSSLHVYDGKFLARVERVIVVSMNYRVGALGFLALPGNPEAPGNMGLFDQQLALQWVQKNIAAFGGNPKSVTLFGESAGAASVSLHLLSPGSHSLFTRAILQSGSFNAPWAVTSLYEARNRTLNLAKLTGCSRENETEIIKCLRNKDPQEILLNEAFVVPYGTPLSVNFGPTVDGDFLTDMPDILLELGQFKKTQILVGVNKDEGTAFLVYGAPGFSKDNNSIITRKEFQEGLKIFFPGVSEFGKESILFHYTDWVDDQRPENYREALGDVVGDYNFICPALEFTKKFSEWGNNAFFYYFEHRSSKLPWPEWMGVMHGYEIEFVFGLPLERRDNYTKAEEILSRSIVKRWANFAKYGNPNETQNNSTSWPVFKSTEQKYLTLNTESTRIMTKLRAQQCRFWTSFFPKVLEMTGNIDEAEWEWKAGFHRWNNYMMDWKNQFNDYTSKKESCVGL

[12] = Effect on APP protein level in mouse HT22 cells transfected with pEGFP-N1-APP plasmid assessed as fluorescence intensity at 20 uM by fluorescence microscopy (reference value: 33.2); assay type: functional, HT-22
[13] = Toxicity in AlCl3-induced Zebrafish model of Alzheimer's disease; set-up: species or system Danio rerio; conditions: in vivo
[14] = Toxicity in Zebrafish assessed as mortality at 3.125 ug/ml relative to control; set-up: species or system Danio rerio; conditions: in vivo, at 3.125 µg/mL
Cholinesterase [15] = biological target: T2, Cholinesterase; test: Inhibition of human serum BuChE assessed as residual activity at IC50 using acetylcholine iodide as substrate measured after dilution by Ellman's method relative to control
Mus musculus = test: Improvement in cognitive impairment in scopolamine-induced mouse model of amnesia assessed as increase in spontaneous alteration at 5 to 10 mg/kg by Y-maze test; assay type: functional, organism-based; conditions: dose 5-10 mg/kg
[16] = Effect on tau protein level in mouse HT22 cells transfected with pRK5-GFP-Tau plasmid assessed as fluorescence intensity at 10 uM by fluorescence microscopy (Rvb <= 40.9); assay type: functional, HT-22
[17] = biological target: T3, Amine oxidase [flavin-containing] B (Homo sapiens, UniProt P27338); test: Inhibition of recombinant human MAO-B
T3 sequence (P27338 whole entry): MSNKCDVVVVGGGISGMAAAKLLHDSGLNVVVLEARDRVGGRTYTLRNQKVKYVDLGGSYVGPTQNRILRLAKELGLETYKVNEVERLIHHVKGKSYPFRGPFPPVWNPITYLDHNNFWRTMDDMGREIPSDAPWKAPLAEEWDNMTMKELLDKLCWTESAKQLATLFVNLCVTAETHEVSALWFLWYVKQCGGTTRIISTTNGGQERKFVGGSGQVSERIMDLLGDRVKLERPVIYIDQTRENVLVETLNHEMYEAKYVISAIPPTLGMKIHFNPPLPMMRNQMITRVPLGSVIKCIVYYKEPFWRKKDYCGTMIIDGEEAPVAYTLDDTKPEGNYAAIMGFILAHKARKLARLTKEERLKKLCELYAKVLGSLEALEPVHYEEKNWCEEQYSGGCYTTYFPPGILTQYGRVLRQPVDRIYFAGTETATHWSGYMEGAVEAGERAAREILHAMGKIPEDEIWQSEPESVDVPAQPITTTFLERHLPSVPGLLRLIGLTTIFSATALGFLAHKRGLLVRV

[18] = Cytotoxicity against human LO2 cells assessed as cell viability at 50 uM by MTT assay relative to control; assay type: cell-based, L02; conditions: read-out: Activity
[19] = Effect on tau protein level in mouse HT22 cells transfected with pRK5-GFP-Tau P301L plasmid assessed as fluorescence intensity at 2.5 uM by fluorescence microscopy (reference value: 33.6); assay type: functional, HT-22
[20] = Acute toxicity in Kunming mouse assessed as damage in spleen at 50 to 1000 mg/kg measured after 7 days; assay type: organism-based; conditions: in vivo, 168 h, dose 50-1000 mg/kg, time 7 day
[21] = Toxicity in AlCl3-induced Zebrafish model of Alzheimer's disease assessed as mortality at 10 ug/ml relative to control; set-up: species or system Danio rerio; conditions: in vivo, at 10 µg/mL
Danio rerio [22] = species: Danio rerio; test: Protection against amyloid beta (1 to 42)-induced zebrafish model of vascular injury assessed as vascular injury rate at […] (reference value: 73.3%); assay type: functional; conditions: dose 0.11 µg/ml
[23] = Acute toxicity in Kunming mouse assessed as decrease in autonomic activity at 250 to 1000 mg/kg; assay type: organism-based; conditions: in vivo, dose 250-1000 mg/kg
[24] = Effect on tau protein level in mouse HT22 cells transfected with pRK5-GFP-Tau plasmid assessed as fluorescence intensity at 2.5 uM by fluorescence microscopy (Rvb <= 40.9); assay type: functional, HT-22
[25] = Acute toxicity in Kunming mouse assessed as damage in kidney at 50 to 1000 mg/kg measured after 7 days; assay type: organism-based; conditions: in vivo, 168 h, dose 50-1000 mg/kg, time 7 day

Q: What does the source list for `CCN(C)C(=O)Oc1ccc(/C=C/C(=O)N2CCc3ccccc3C2)cc1OC`?
A: Efficacy (Danio rerio [1]): 27.3%; Activity [2]: Non-Toxic; Activity [3]: Toxic; Activity [4]: 43.3%; mortality at 50 ug/ml [5]: 100%; IC50 (Cholinesterase [6]): 0.92 µM; Efficacy (Danio rerio [7]): 72.6%; IC50 [8]: 15.9 µM; Activity (Danio rerio [9]): 6763 mm; Activity [10]: 53.3%; Activity (HT-22): Dose-dependent effect; Activity (Cholinesterase [11]): 53.2%; Flu intensity [12]: 14.9; MTD [13]: 1 µg/mL; mortality at 3.125 ug/ml [14]: 0%; Activity (Cholinesterase [15]): 48.2%; Activity (Mus musculus): Active; Flu intensity [16]: 33.3; IC50 [17]: 5.3 µM; viability at 50 µM [18]: 46.9%; Flu intensity [19]: 30.3; Activity [20]: Non-Toxic; mortality at 10 ug/ml [21]: 0%; Activity (Danio rerio [22]): 80%; Activity [23]: Toxic; Flu intensity [24]: 32.6; Activity [25]: Non-Toxic
